Assay results taken from ChEMBL document CHEMBL1134687, “Synthesis and structure-activity relationships of naphthamides as dopamine D3 receptor ligands” (J Med Chem, 2001).

Key:
D(2) dopamine receptor = D(2) dopamine receptor (Rattus norvegicus, UniProt P61169); assay: Binding affinity for dopamine receptor D2 long expressed in Sf9 cells using [125I]IABN radioligand.
D(3) dopamine receptor = D(3) dopamine receptor (Rattus norvegicus, UniProt P19020); assay: biochemical
Description: Binding affinity for dopamine receptor D3 expressed in Sf9 cells using [125I]IABN the radioligand.

Sigma 2 receptor [1] = target: Sigma 2 receptor; design: species or system Rattus norvegicus, Liver, Membrane
Sigma 2 receptor [2] = assay: Binding affinity for sigma-2 receptor measured on rat liver membranes using [3H]DTG as radioligand in the presence of (+)-pentazocine; design: species or system Membrane

Sequence of D(2) dopamine receptor (P61169 whole entry): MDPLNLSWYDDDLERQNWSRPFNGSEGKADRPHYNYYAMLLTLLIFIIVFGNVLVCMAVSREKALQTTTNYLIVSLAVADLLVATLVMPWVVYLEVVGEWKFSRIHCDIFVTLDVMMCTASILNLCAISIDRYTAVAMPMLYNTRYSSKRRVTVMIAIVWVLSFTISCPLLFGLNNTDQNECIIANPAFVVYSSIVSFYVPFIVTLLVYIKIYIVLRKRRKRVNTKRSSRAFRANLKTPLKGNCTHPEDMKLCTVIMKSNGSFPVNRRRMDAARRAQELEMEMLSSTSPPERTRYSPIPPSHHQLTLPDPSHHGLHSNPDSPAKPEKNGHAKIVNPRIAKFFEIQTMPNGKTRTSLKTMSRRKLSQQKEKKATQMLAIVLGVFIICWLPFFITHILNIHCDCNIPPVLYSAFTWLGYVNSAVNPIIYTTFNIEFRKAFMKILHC
Sequence of D(3) dopamine receptor (P19020 whole entry): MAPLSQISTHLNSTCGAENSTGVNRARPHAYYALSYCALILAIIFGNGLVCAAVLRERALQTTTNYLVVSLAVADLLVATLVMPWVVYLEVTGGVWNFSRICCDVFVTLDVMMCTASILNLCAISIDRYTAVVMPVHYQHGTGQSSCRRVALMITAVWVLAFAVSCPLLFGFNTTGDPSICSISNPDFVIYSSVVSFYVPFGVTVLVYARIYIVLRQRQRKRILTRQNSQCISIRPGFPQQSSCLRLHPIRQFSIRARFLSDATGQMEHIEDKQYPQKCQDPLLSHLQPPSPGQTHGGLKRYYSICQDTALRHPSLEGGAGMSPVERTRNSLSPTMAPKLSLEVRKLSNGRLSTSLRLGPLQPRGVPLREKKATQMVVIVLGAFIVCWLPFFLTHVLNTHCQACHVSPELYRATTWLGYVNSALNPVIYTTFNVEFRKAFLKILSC

Compound	Ki (D(2) dopamine receptor)	Ki (D(3) dopamine receptor)	Ki (Sigma 2 receptor [1])	Ki (Sigma 2 receptor [2])
COc1c(C(=O)NC2CC3CCCC(C2)N3C2CCCCCC2)cc(Br)c2ccccc12 (stereo not drawn)	152 nM	41 nM	7.9 nM	
COc1c(C(=O)N[C@@H]2CCN(Cc3ccccc3)C2)cc(Br)c2ccccc12	12 nM	1.6 nM	20.8 nM	
COc1c(C(=O)N[C@@H]2CCN(C3C4CCCC3CCC4)C2)cc(Br)c2ccccc12 (stereo partly drawn)	75 nM	13.2 nM	279 nM	
COc1c(C(=O)NC[C@H]2CCCN2C2[C@H]3C[C@@H]4C[C@@H](C[C@H]2C4)C3)cc(Br)c2ccccc12 (stereo partly drawn)		2.6 nM	317 nM	
COc1c(C(=O)N[C@H]2CCN(C3C4CCCC3CCC4)C2)cc(Br)c2ccccc12 (stereo partly drawn)	132 nM	12 nM	137 nM	
COc1c(C(=O)NC2CC3CCCC(C2)N3C2CCCCC2)cc(Br)c2ccccc12 (stereo not drawn)	150 nM	48 nM	4.8 nM	
COc1c(C(=O)NC2CCN(C3[C@H]4C[C@@H]5C[C@@H](C[C@H]3C5)C4)CC2)cc(Br)c2ccccc12 (stereo partly drawn)	96 nM	92 nM	55 nM	
COc1c(C(=O)N[C@H]2CCN(Cc3ccccc3)C2)cc(Br)c2ccccc12	9.7 nM	1 nM	42 nM	
COc1c(C(=O)N[C@@H]2CCN(C3[C@H]4C[C@@H]5C[C@@H](C[C@H]3C5)C4)C2)cc(Br)c2ccccc12 (stereo partly drawn)		13 nM	21.4 nM	
COc1c(C(=O)NC2CCN(Cc3ccccc3)CC2)cc(Br)c2ccccc12		1.1 nM		35 nM
COc1c(C(=O)N[C@H]2CCN(C3[C@H]4C[C@@H]5C[C@@H](C[C@H]3C5)C4)C2)cc(Br)c2ccccc12 (stereo partly drawn)		0.4 nM	70 nM	
COc1c(C(=O)NC2CC3CCCC(C2)N3Cc2ccccc2)cc(Br)c2ccccc12 (stereo not drawn)	0.2 nM	0.04 nM	250 nM	
COc1c(C(=O)NC[C@@H]2CCCN2C2CCCCC2)cc(Br)c2ccccc12	442 nM	334 nM	147 nM	
COc1c(C(=O)NC[C@H]2CCCN2C2CCCCC2)cc(Br)c2ccccc12	58 nM	3.2 nM	25 nM	
COc1c(C(=O)NC[C@H]2CCCN2Cc2ccccc2)cc(Br)c2ccccc12	11.4 nM	1.4 nM	207 nM	
COc1c(C(=O)NC[C@@H]2CCCN2C2[C@H]3C[C@@H]4C[C@@H](C[C@H]2C4)C3)cc(Br)c2ccccc12 (stereo partly drawn)		68 nM	141 nM	
COc1c(C(=O)N[C@@H]2CCN(C3CCCCCC3)C2)cc(Br)c2ccccc12	19 nM	2.9 nM	10 nM	
COc1c(C(=O)NC2CCN(C3C4CCCC3CCC4)CC2)cc(Br)c2ccccc12 (stereo not drawn)	771 nM	1430 nM	2.4 nM	
COc1c(C(=O)NC[C@@H]2CCCN2Cc2ccccc2)cc(Br)c2ccccc12	151 nM	14.6 nM	222 nM	
COc1c(C(=O)N[C@H]2CCN(C3CCCCCC3)C2)cc(Br)c2ccccc12	1.8 nM	0.2 nM		
COc1cc(I)cc(C(=O)NC2CC3CCCC(C2)N3Cc2ccccc2)c1OC (stereo not drawn)	0.05 nM	0.04 nM	419 nM	

Further lines, results first:

Ki (D(2) dopamine receptor)	Ki (D(3) dopamine receptor)	Ki (Sigma 2 receptor [1])	Ki (Sigma 2 receptor [2])	Compound
11.8 nM				COc1c(C(=O)NC[C@@H]2CCCN2C2CCC2)cc(Br)c2ccccc12
	50 nM			COc1c(C(=O)NC[C@@H]2CCCN2C2CCCCCC2)cc(Br)c2ccccc12
157 nM		35 nM		COc1c(C(=O)NC[C@H]2CCCN2C2CCCC2)cc(Br)c2ccccc12
277 nM				COc1c(C(=O)NC[C@H]2CCCN2C2CCC2)cc(Br)c2ccccc12
94 nM	430 nM	2.1 nM		COc1c(C(=O)NC2CCN(C3CCCCC3)CC2)cc(Br)c2ccccc12
	2.4 nM			COc1c(C(=O)NC[C@H]2CCCN2C2CCCCCC2)cc(Br)c2ccccc12
23 nM	58 nM	2.6 nM		COc1c(C(=O)NC2CCN(C3CCCCCC3)CC2)cc(Br)c2ccccc12
19 nM	2.5 nM	27 nM		COc1c(C(=O)N[C@H]2CCN(C3CCCC3)C2)cc(Br)c2ccccc12
74 nM	5.7 nM	9.8 nM		COc1c(C(=O)N[C@@H]2CCN(C3CCCCC3)C2)cc(Br)c2ccccc12
283 nM	75 nM	15.3 nM		COc1c(C(=O)N[C@@H]2CCN(C3CCCC3)C2)cc(Br)c2ccccc12
210 nM	899 nM	6.8 nM		COc1c(C(=O)NC2CCN(C3CCCC3)CC2)cc(Br)c2ccccc12
59 nM		51 nM		COc1c(C(=O)NC[C@@H]2CCCN2C2CCCC2)cc(Br)c2ccccc12
26 nM	7.5 nM	267 nM		COc1c(C(=O)NC[C@@H]2CCCN2C2C3CCCC2CCC3)cc(Br)c2ccccc12 (stereo partly drawn)
	0.8 nM	25 nM		COc1c(C(=O)N[C@H]2CCN(C3CCCCC3)C2)cc(Br)c2ccccc12
